Data published in patent US20240366560A1, “SMALL MOLECULE TREATMENT OF FATTY LIVER DISEASE AND HCC” (ScandiEdge Therapeutics AB, priority 2021, published 2024).

Legend:
FASN = FASN protein level by western blot in steatosis-induced HepG2, 7-day drug treatment; format: cell-based; settings: steatosis-induced HepG2, 7 days of drug treatment, P<0.05, FIG. 2C
Description: WT HepG2 was included in this study and cultured by Roswell Park Memorial Institute (RPMI, R2405, Sigma Aldrich) 1640 Medium with 10% fetal bovine serum (FBS) and 1% penicillin-streptomycin (PS). To induce a steatosis model into WT HepG2 cells, high glucose Dulbecco's Modified Eagle Media (DMEM, D0822/D5671, Sigma-Aldrich) containing 10% FBS and 1% PS was used as medium for one week, together with 10 μg/mL insulin and 10 μM T0901317. All of cells were incubated in the incubator with 5% CO2 and 37° C. (Thermo SCIENTIFIC). Fresh medium was provided every two days.
As for drug-screening, different numbers of HepG2 cells were seeded for distinct experiments. More in details, 40,000 cells and 500,000 cells were used for 2-day-drug treatment in 96-well-plate and 6-well plate, respectively, while 80,000 cells and 300,000 cells were used for one-week drug treatment in 96-well plate and 6-well plate, respectively. Detailed drug dosages could be found in FIG. 5. Fresh medium was provided every two days.
Protein content levels were detected by western blot. After the respective treatment of drugs, the cell pellets were lysed in cell lytic M, followed by protein extraction from supernatant (10 min, 13,000r/min centrifuge). Extracted cell lysate was stored in −20° C. Proteins were quantified through Bovine albumin serum (BAS) standard curve with protein assay dye reagent (BIO-RAD). The proteins were separated by SDS-PAGE with 100v in 90 min by mini-protein TGX precast gels (4-15%, 15 wells, 15 μl/well, BIO-RAD), and then transfer to Mini PVDF transfer package through transfer system (Transfer-Turbo, BIO-RAD). After 30 min blocking with 5% skim milk in cold room (4° C.) and washing with TBST, membrane was cut by the size of interested proteins. Primary antibodies were added into the corresponding membrane sections for overnight binding. Then the membranes were washed with TBST, and the secondary antibodies were incubated for 1 h in cold room. The following antibody were used: (Goat pAb to Rb lg, ab205718, abcam; Rb pAb to beta-actin, ab8227, abcam; anti-pklr, HPA006653, SIGMA; Rb pAb to fatty acid synthase, ab99539, abcam). The bindings were imaged by immunostaining and machine (ImageQuant LAS 500). All antibodies were purchased from Abcam online, and βactin was used as global normalized protein. After measurement, the strength of signal for each protein was quantified by ImageJ. The background noise was removed, and all results were normalized by the levels of β-actin.
To further analyse the effect of these drugs on lipid accumulation via the DNL pathway, steatosis was induced to HepG2 by treating the cells with high glucose medium (DMEM), insulin and T0901317 (Hansmannel et al., 2006). […] Therefore, the effects of these two drugs on the de novo synthesis of lipids were investigated based on the steatosis-induced HepG2 model. […] Taken together, it was shown that BX-912 and JNK-IN-5A effectively alleviate the protein expression of PKLR and FASN as well as TG levels in HepG2 cell lines, and thus, it was decided to perform in vivo evaluations to test the effect of these two drugs.

steatosis-induced HepG2 = test: Triglyceride assay in steatosis-induced HepG2; format: cell-based; settings: steatosis-induced HepG2, 7 days of drug treatment, FIG. 2D
Description: All of cells were incubated in the incubator with 5% CO2 and 37° C. (Thermo […]). Fresh medium was provided every two days.

HSD-fed rats = test: In vivo efficacy study in HSD-fed steatosis rats: histopathological examination; settings: 30 mg/kg; for degeneration in renal tubule epithelium / fattening in the parenchyma cells of pancreas tissues / degeneration in hepatocytes in liver tissues / steatosis in hepatocytes in liver tissues: HSD 3w group: severe; for degeneration in hepatocytes in liver tissues / steatosis in hepatocytes in liver tissues: FIG. 3
Excerpt: In vivo efficacy studies. After 1-week acclimation period, rats were randomly separated into two groups: control group (n=5) and high sucrose group (n=20). The control group was fed with a standard diet while the others consumed high sucrose diet (HSD). Sucrose was purchased from Sigma Chemical Co. (St Louis, MO, USA) and supplied at the dose of 10% in the drink water for two weeks.
After 2 weeks, five rats in the HSD group were randomly sacrificed for conformation of NAFLD model. Then, the remaining rats in the HSD group were separated into three sub-groups (n=5): HSD group, HSD plus BX-912 group and HSD plus JNK-IN-5A group. BX-912 and JNK-IN-5A were dissolved in DMSO and were orally administrated using oral gavage for one week (30 mg/kg/day). The HSD group were treated with vehicle solution only.
At the end of the experiment, rats were sacrificed after being anesthetized. Blood samples were collected from the abdominal aorta and centrifuged at 8000 rpm for 15 min at 4° C. The plasma was separated and stored at −80° C. until further analysis. Other internal organs, including the heart, adipose tissues, liver, kidney, muscle, intestine (duodenum, ileum, jejunum), pancreas, colon and stomach were immediately removed and then snap frozen in liquid nitrogen and stored at −80° C.; the liver was also fixed in 10% formaldehyde for histopathological examination.
Histopathological examination. The liver tissues were fixed in 10% buffered formaldehyde solution. After fixation, the tissues were passed through graded alcohol and xylene series and embedded in paraffin blocks. 5 micrometer thick sections were taken serially from the paraffin blocks. Histopathological changes were evaluated by performing hematoxylin eosin staining on the sections taken. Sections were evaluated according to histopathological findings as none (−), mild (+), moderate (++) and severe (+++).
Next, the efficacy of these two drugs in a steatosis rat study was investigated by feeding the animals with HSD. Five groups of 12-week-old rats (n=5) were raised. For two weeks, the first group was fed with CHOW and the remaining four groups were fed with HSD. […] One of the remaining groups was fed with HSD (HSD 3w) for seven days. Another one of the remaining groups was fed with HSD plus BX-912 (30 mg/kg) for seven days. The last one of the remaining groups was fed with HSD plus JNK-IN-5A (30 mg/kg) for seven days. After said seven days, all three groups were sacrificed, and tissue samples from the liver and other major organs and blood samples were collected for efficacy examination. A histopathological and immunohistochemical analysis was performed on the liver samples and other major organs obtained from the three rat groups.

HepG2 cells = test: MTT assay of liver cancer cell viability; format: cell-based; settings: HepG2, 10 μM, two days, FIG. 4
Description: HepG2 cells were seeded into a 96 well plate at 20,000 cells per well as hexaplicated. Next day, treatment of the cells with 10 μM drugs (BX-912 and JNK-IN-5A) was started. The treatment lasted for two days. Cell viability was measured using MTT assay. Cells were incubated with 5 mg/ml MTT 3-4 5-DIMETHYLTHIAZ ([…] Thermo fisher) in PBS for 2 h. Microplate reader measured cell viability O.D at 570 nm.

Row | Structure (SMILES) | protein expression level of FASN (FASN) | content of TGs (normalized by cell viability) (steatosis-induced HepG2) | degeneration in renal tubule epithelium (HSD-fed rats; HSD-fed rats, 7 days) | fattening in the parenchyma cells of pancreas tissues (HSD-fed rats; HSD-fed rats, 7 days) | degeneration in hepatocytes in liver tissues (HSD-fed rats; HSD-fed rats, 7 days) | steatosis in hepatocytes in liver tissues (HSD-fed rats; HSD-fed rats, 7 days) | toxic effect on small intestine, large intestine, stomach, heart and muscle tissues (HSD-fed rats; rat, in vivo) | viability of liver cancer cells in the MTT assay (HepG2 cells) | toxic effect on small intestine, large intestine, stomach, heart and muscle tissues (HSD-fed rats; HSD-fed rats, 7 days)
1 | O=C(Nc1cccc(Nc2ncc(Br)c(NCCc3cnc[nH]3)n2)c1)N1CCCC1 [BX-912, N-[3-[[5-bromo-4-[[2-(1H-imidazol-5-yl)ethyl]amino]-2-pyrimidinyl]amino]phenyl]-1-pyrrolidinecarboxamide] | significantly reduced | significantly decreased | mild | mild | Mild | moderate | no toxic effect | significantly reduced | –
2 | N#Cc1c(NC(=O)c2cccc3ccccc23)sc2c1CCCC2 [JNK-IN-5A, N-(3-cyano-4,5,6,7-tetrahydrobenzo [b]thien-2-yl)-1-naphthalenecarboxamide] | significantly reduced | significantly decreased | mild | mild | mild | mild | – | significantly reduced | no toxic effect
